Experimental findings from publication PMC11988454, “Discovery of synthetic small molecules targeting the central regulator of Salmonella pathogenicity” (Science Advances, 2025) are described below.

Data set [1] has as its target T1, HilD (Salmonella typhimurium, UniProt E1WAC0).
T1 construct: endogenous in cells; host or cells: S. Typhimurium SL1344 strain PhilA-sfGFP
The data set can be described thus: Whole-cell HilD activity assay (PhilA-sfGFP activation). The data set is classed as cell-based, S. Typhimurium. The note with it: for activity in PhilA activation assay, in words: CDCA: highest tested concentration 100 μM. How it is done: A whole-cell reporter gene assay was used to quantify HilD transcriptional activity. Strain PhilA-sfGFP and the isogenic ΔhilD PhilA-sfGFP were used for this purpose. Cultures were performed in 1 ml of LB supplemented with 0.3 M NaCl. Compounds at different concentrations or 1% (v/v) DMSO were added to the corresponding tubes. Cultures were incubated at 37°C and 180 rpm for 5 hours. Cells were pelleted, resuspended in 100 μl of PBS, and then transferred into a 96-well black clear-bottom plate (Thermo Fisher Scientific, USA). Fluorescence intensity was measured with a Tecan Spark microplate reader with an excitation wavelength of 485 nm and an emission wavelength of 510 nm. Dose-response curves and IC50 values were calculated using CDD Vault.

A further data set relates to HeLa cells. The data set can be described thus: Cytotoxicity, CellTox Green Cytotoxicity Assay, HeLa. The data set is classed as cell-based. The settings on record: exposure time 18 h. The procedure: In vitro toxicity of compound C26 was assessed in HeLa cells (ATCC CCL-2) using the ApoTox-Glo Triplex Assay and in macrophages RAW 264.7-LgBiT using the CellTox Green Cytotoxicity Assay (Promega, USA) according to the manufacturer’s instructions. The screening of in vitro toxicity of the compound analogs was performed with the CellTox Green Cytotoxicity Assay (Promega, USA) according to the manufacturer’s instructions. Cells (10^4 cells per well) were seeded into a 96-well plate and incubated for 24 hours at 37°C, 5% (v/v) CO2. Cells were then treated with the compound at different concentrations or 1% (v/v) DMSO in Dulbecco’s modified Eagle’s medium (DMEM) without phenol red at the desired exposure time. Fluorescence intensity was measured with a TECAN Spark microplate reader. Cytotoxicity [relative fluorescence units (RFU)] and viability (RFU) values were plotted to calculate the TC50 using GraphPad Prism 10.1.1.
Compound concentration (µM) […]
in vitro cytotoxicity of C26 and analogs. Cytotoxicity assessed with CellTox™ Green Cytotoxicity Assay with an exposure time of 18 h. N = 3 biological replicates. Data were plotted and TC50 values were generated with GraphPad Prism 10.1.1.
(1 picture or pasted object on this page, not shown here)

Data set [2] concerns the target T2, HilD (Salmonella typhimurium, UniProt P0CL08).
T2 construct: His6-SUMO (N, cleaved yes); made in house; host or cells: E. coli C41(DE3)
Kind of data set: nanoDSF thermal stability, HilD. The data set is classed as binding, S. Typhimurium. How it is done: Thermal stability of proteins was determined using nanoDSF, with runs performed on a Prometheus NT.48 (NanoTemper Technologies). A twofold serial dilution series of C26 was prepared in DMSO. C26 was added to HilD or HilC (5 μM) in SEC buffer, giving a final DMSO concentration of 1% (v/v). Samples were incubated for >20 min at r.t. and centrifuged for 2 min prior to loading of standard capillaries (no. PR-C002). Samples were heated from 20° to 80°C with a temperature gradient of 0.5°C min^−1. Melting temperatures were calculated from changes in the fluorescence ratio (350/330 nm), using PR.Stability Analysis v1.0.3 and a temperature range of 40° to 70°C for curve fitting. Data analysis was performed using Prism 8.4 (GraphPad). The change in HilD melting temperature, Tm, was fitted as a function of ligand concentration, using Eqs. 1 and 2 to yield apparent affinity (Kd,app) values Tm{[L]0}=Tm,lower+(Tm,upper−Tm,lower)*(1−α{[L]0}) (1) α{[L]0}=[P]t−Kd−[L]t+{[P]t+[L]t+Kd,app}^2−{4[P]t[L]t}/2[P]t (2) where [P]t and [L]t are the total protein and ligand concentrations, respectively.

The target in another data set is HilD-HilE heterodimer (Salmonella typhimurium, UniProt P0CL08). Kind of data set: MST dimerization assay HilD-HilE. The data set is classed as binding, S. Typhimurium. The note with it: 100 μM compound. How it is done:
MST measurements for the binding of HilD to HilE were performed as previously described ([39]). In summary, enhanced yellow fluorescent protein (EYFP)-HilD (100 nM) was incubated with 100 μM either oleic acid or C26 [with a final concentration of 1% (v/v) DMSO] for 10 min at r.t. (22° to 25°C) and subsequently mixed 1:1 with varying concentrations of HilE. Samples were incubated together for 10 min at r.t., centrifuged for 5 min, and loaded to standard capillaries (NanoTemper Technologies GmbH, no. MO-K022). MST runs were performed at 25°C on a NanoTemper Monolith NT.115, with an excitation power of 60% and medium MST power. Data were analyzed using the MO.Affinity Analysis v2.3 software, and affinity constants were calculated using the Kd model.

The target of the next data set is T3, HilD dimer (Salmonella typhimurium, UniProt P0CL08).
T3 construct: His6-SUMO (N, cleaved yes); made in house; host or cells: E. coli C41(DE3)
The data set can be described thus: BS3 cross-linking of HilD. The data set is classed as biochemical, S. Typhimurium. The settings on record: oleic acid 50 and 100 μM; C26 up to 200 μM. The procedure: BS^3 cross-linking of HilD was performed as previously described ([39]). In summary, HilD (10 μM) was first incubated with C26 or oleic acid in SEC buffer for 20 min at r.t., with a final DMSO concentration of 1% (v/v). HilD was then cross-linked by incubation with 0.2 mM BS^3 (Thermo Fisher Scientific, Pierce, A39266) at r.t. for 1 hour, before the reaction was quenched by the addition of 50 mM Tris (pH 7.5). Samples were analyzed using SDS-PAGE and visualized by silver staining.

The data set “SEC-MALS” concerns the molecule itself. Kind of data set: SEC-MALS.
Data set [3] addresses T4, HilE (Salmonella enterica subsp. enterica …).
T4 chain: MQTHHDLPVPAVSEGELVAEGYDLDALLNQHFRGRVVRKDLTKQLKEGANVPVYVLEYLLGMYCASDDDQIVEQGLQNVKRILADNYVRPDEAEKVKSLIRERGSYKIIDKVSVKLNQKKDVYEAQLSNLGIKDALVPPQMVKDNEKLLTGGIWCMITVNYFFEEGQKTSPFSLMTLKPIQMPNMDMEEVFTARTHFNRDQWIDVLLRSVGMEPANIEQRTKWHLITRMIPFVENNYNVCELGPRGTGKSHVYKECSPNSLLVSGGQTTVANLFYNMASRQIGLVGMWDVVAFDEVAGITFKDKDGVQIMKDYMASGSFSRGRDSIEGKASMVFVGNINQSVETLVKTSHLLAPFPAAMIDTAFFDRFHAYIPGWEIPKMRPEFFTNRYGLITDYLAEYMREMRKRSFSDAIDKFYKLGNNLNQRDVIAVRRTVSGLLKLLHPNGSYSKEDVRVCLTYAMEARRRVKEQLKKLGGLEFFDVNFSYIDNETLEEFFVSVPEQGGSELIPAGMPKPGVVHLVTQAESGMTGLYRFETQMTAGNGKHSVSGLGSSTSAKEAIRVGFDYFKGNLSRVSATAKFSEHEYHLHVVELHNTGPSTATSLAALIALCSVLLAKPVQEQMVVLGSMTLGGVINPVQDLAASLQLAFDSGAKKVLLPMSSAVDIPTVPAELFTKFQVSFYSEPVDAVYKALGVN
Kind of data set: MST; 1% DMSO.

In data set [4] the target is T4, HilE. Kind of data set: MST; 100 uM C26.

Where only a bound is given, the exact number is not on record here.

With `C[C@H](CCC(=O)O)[C@H]1CC[C@H]2[C@@H]3[C@H](O)C[C@@H]4C[C@H](O)CC[C@]4(C)[C@H]3CC[C@]12C` [CDCA, chenodeoxycholic acid, reference compound], at HilD [1], the “activity in PhilA activation assay, in words” value is on record as “No activity”.
With `CN(CC(=O)NCc1ccccc1)Cc1ccc(Br)s1` [SW-C103], inhibition on HilD [1] was half-maximal at 34.4 µM (IC50). This molecule gave a TC50 cytotoxicity with HeLa cells above 100 µM. Also, binding on HilD [2] was characterised by a dissociation constant (Kd) of 28.8 µM.
At HilD [1], `CN(CC(=O)NCc1ccc2c(c1)OCO2)Cc1ccc(Br)cc1` [SW-C116] registered an IC50 of 68.3 µM. In the data set with HeLa cells, this molecule returned a TC50 cytotoxicity above 100 µM. The same molecule returned a Kd at HilD [2] above 100 µM.
Consider `Cc1ccc(CN(C)CC(=O)NCc2ccc3c(c2)OCO3)s1` [SW-C153], for which, at HilD [1], 63.1 µM corresponded to half-maximal inhibition (IC50). Besides, the TC50 cytotoxicity in the data set on HeLa cells is above 100 µM. Further, on HilD [2], binding was put at a Kd of 8.8 µM.
Regarding `CN(CC(=O)NCc1ccc2c(c1)OCO2)Cc1ccccc1Br` [SW-C165, N-(benzo[d][1,3]dioxol-5-ylmethyl)-2-[(2-bromobenzyl)(methyl)amino]acetamide], on HilD [1], the IC50 is above 100 µM. In the data set with HeLa cells, this molecule showed a TC50 cytotoxicity above 100 µM. In addition, at HilD [2], the Kd was above 100 µM.
For `CN(CC(=O)NCc1ccc(O)c(O)c1)Cc1ccc(Br)s1` [SW-C170, 2-{[(5-Bromothiophen-2-yl)methyl](methyl)amino}-N-(3,4-dihydroxybenzyl)acetamide], on HilD [1], the IC50 was above 100 µM and the “activity in PhilA activation assay, in words” value is “complete loss of activity”. Besides, the TC50 cytotoxicity in the data set on HeLa cells is above 100 µM. The same molecule yielded a Kd at HilD [2] above 100 µM.
With `CN(CC(=O)NCc1ccc2c(c1)OC(F)(F)O2)Cc1ccc(Br)s1` [SW-C182, 2-{[(5-Bromothiophen-2-yl)methyl](methyl)amino}-N-[(2,2-difluorobenzo[d][1,3]dioxol-5-yl)methyl]acetamide], the IC50 on HilD [1] was determined as 4.9 µM. Besides, the TC50 cytotoxicity with HeLa cells stood at 49.9 µM. At HilD [2], this molecule yielded a Kd of 2.7 µM.
In turn, `CN(CC(=O)NCc1ccc(Cl)cc1)Cc1ccc(Br)s1` [SW-C202, 2-{[(5-Bromothiophen-2-yl)methyl](methyl)amino}-N-(4-chlorobenzyl)acetamide] had an IC50 against HilD [1] of 3.9 µM. In the data set with HeLa cells, this molecule returned a TC50 cytotoxicity of 87.3 µM. In addition, the affinity at HilD [2], expressed as Kd, was 4.1 µM.
Molecule `CN(CC(=O)NCc1ccc2c(c1)OCO2)Cc1ccc(Br)o1` [SW-C210, N-(benzo[d][1,3]dioxol-5-ylmethyl)-2-{[(5-bromofuran-2-yl)methyl](methyl)amino}acetamide] yielded an IC50 on HilD [1] above 100 µM. Also, the TC50 cytotoxicity in the data set on HeLa cells is above 100 µM. Further, on HilD [2], the Kd is above 100 µM.
On HilD [1], `CN(CC(=O)NCc1cc(Cl)cc(Cl)c1)Cc1ccc(Br)s1` [SW-C250, 2-{[(5-Bromothiophen-2-yl)methyl](methyl)amino}-N-(3,5-dichlorobenzyl)acetamide] showed an IC50 of 3.2 µM. In the data set with HeLa cells, this molecule registered a TC50 cytotoxicity above 100 µM. Besides, on HilD [2], binding was put at a Kd of 1.8 µM.
Regarding `CCCCCCCCCCCCC/C=C\C(=O)O` [c2-HDA, cis-2-hexadecenoic acid, reference compound], the IC50 against HilD [1] amounted to 0.21 µM. In other words, the sub-micromolar range.
With `CCCCCCCC/C=C\CCCCCCCC(=O)O` [oleic acid, reference compound], the “formation of HilD-HilE heterodimers” value on HilD-HilE heterodimer is recorded as “disrupted the binding of HilE to HilD”. Besides, the IC50 on HilD [1] came out at 25.1 µM. At HilD dimer, the “levels of cross-linked HilD dimer” value is on record as “Decreased levels of the cross-linked HilD dimer”.
Take `CCCCCC/C=C\CCCCCCCC(=O)O` [palmitoleic acid, reference compound]: on HilD [1], the midpoint of inhibition, the IC50, lay at 25.8 µM.

B1: HilD (natural protein)
chain: MENVTFVSNSHQRPAADNLQKLKSLLTNTRQQIKSQTQQVTIKNLYVSSFTLVCFRSGKLTISNNHDTIYCDEPGMLVLKKEQVVNVTLEEVNGHMDFDILEIPTQRLGALYALIPNEQQTKMAVPTEKAQKIFYTPDFPARREVFEHLKTAFSCTKDTSKGCSNCNNKSCIENEELIPYFLLFLLTAFLRLPESYEIILSSAQITLKERVYNIISSSPSRQWKLTDVADHIFMSTSTLKRKLAEEGTSFSDIYLSARMNQAAKLLRIGNHNVNAVALKCGYDSTSYFIQCFKKYFKTTPSTFIKMANH
notes: also called HilDWT; recombinant HilD; source: E. coli C41(DE3), purified (Ni-NTA, SUMO protease cleavage, second Ni-NTA, SEC)
Regarding B1, the “stoichiometry N” value in the data set “SEC-MALS” was determined as 2. Further, the Kd with HilE [3] stood at 1.7 µM; with HilE [4], 1.71 µM.

As a reminder, the IC50 is the concentration needed to halve the response being measured. What is called Kd is a measure of binding affinity in units of concentration. Low readings indicate higher affinity, high ones lower affinity. The term stoichiometry N denotes the number of molecules, sites or subunits per partner or assembly.
